Measurements from patent US20050261250A1, “Compositions and methods for inhibiting bone resorption” (Merck & Co., Inc.,, priority 2004, published 2005).

Key:
[1] = cited from earlier work
[2] = Autoxidative lability of vitamin D3 as oil or amorphous solid (HPLC); format: physicochemical; details: 20-40° C., within hours
From the text: It is also understood that vitamin D can undergo autoxidation through induction by a free radical initiator or spontaneously in solid or solution phase to form a variety of products, some of which have been identified. Representative characterization of vitamin D degradation (and, specifically, vitamin D3 in this instance) in embodiments of compositions of the present invention confirms the autoxidative lability of vitamin D3 in which vitamin D3 was converted to an oil or amorphous solid and exposed to temperatures from 20-40° C. […] At longer exposure times, these absorptions continued to decrease as further reaction occurred.

Row | SMILES | aqueous solubility [1] | HPLC analysis of vitamin D3 after exposure [2]
1 | C=C1CC[C@H](O)C/C1=C/C=C1\CCC[C@]2(C)[C@@H]([C@H](C)/C=C/[C@H](C)C(C)C)CC[C@@H]12 [vitamin D2, ergocalciferol] | water insoluble | 
2 | C=C1CC[C@H](O)C/C1=C/C=C1\CCC[C@]2(C)[C@@H]([C@H](C)CCCC(C)C)CC[C@@H]12 [Vitamin D3, cholecalciferol] |  | extensive destruction
